Results taken from patent US11793801B2, “Treatment of pain and neurological conditions” (BioCorRx, Inc., priority 2020, dated 2023).
Like-named read-outs stand apart in the source and are kept apart here.

Assays:
Delta (DOP) receptor = Delta (DOP) receptor (Homo sapiens, UniProt P41143); assay: in vitro pharmacology at Delta (DOP) receptor; type: biochemical
Sigma opiate sites = assay: in vitro pharmacology at Sigma sites; type: binding
[1] = biological target: T1, adrenergic receptor Alpha 1B (Homo sapiens, UniProt P35368); assay: in vitro antagonistic activity, adrenergic Alpha 1B; type: biochemical
T1 sequence (P35368 1-520): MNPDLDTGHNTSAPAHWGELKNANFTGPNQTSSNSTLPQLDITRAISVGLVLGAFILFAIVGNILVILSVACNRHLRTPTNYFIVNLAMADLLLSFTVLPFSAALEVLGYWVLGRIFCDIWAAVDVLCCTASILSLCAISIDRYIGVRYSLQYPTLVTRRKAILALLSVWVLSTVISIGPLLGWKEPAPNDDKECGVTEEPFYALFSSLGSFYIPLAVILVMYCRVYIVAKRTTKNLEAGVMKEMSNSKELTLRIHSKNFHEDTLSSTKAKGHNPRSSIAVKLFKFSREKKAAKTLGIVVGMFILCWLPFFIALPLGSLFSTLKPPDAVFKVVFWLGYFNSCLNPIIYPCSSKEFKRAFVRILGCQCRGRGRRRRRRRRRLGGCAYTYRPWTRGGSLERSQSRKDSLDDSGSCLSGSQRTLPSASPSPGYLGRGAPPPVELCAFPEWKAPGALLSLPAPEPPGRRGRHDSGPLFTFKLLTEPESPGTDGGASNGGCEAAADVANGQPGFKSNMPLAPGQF

[2] = biological target: T2, adrenergic receptor Alpha 2B (Homo sapiens, UniProt P18089); assay: in vitro antagonistic activity, adrenergic Alpha 2B; type: biochemical
T2 sequence (P18089 1-450): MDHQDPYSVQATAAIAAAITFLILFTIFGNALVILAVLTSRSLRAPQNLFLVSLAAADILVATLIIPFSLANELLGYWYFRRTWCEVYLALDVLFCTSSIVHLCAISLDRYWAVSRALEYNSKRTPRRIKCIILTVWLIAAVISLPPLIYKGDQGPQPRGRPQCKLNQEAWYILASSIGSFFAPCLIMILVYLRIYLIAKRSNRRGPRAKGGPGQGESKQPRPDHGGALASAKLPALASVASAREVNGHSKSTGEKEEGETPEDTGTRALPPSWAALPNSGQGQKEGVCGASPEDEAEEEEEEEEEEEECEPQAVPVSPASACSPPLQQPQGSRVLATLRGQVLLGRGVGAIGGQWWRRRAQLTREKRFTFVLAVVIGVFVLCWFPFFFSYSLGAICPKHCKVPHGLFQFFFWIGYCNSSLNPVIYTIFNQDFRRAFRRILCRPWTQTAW

[3] = biological target: T3, adrenergic receptor Alpha 2C (Homo sapiens, UniProt P18825); assay: in vitro antagonistic activity, adrenergic Alpha 2C; type: biochemical
T3 sequence (P18825 1-462): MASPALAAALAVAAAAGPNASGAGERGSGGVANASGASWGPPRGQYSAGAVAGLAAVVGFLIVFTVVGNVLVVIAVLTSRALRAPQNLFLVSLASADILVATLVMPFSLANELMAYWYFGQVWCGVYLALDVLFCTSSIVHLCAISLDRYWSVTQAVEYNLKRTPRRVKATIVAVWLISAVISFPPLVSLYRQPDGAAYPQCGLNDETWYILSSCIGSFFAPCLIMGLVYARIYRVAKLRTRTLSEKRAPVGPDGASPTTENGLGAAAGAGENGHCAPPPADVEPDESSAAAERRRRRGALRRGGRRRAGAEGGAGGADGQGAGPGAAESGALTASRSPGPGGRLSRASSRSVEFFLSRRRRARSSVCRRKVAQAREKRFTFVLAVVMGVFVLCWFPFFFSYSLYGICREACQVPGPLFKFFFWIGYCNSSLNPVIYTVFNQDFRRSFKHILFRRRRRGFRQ

histamine H1 receptor = histamine H1 receptor (Homo sapiens, UniProt P35367); assay: in vitro antagonistic activity, histamine H1; type: biochemical
Chain of histamine H1 receptor (P35367 whole entry, species assumed): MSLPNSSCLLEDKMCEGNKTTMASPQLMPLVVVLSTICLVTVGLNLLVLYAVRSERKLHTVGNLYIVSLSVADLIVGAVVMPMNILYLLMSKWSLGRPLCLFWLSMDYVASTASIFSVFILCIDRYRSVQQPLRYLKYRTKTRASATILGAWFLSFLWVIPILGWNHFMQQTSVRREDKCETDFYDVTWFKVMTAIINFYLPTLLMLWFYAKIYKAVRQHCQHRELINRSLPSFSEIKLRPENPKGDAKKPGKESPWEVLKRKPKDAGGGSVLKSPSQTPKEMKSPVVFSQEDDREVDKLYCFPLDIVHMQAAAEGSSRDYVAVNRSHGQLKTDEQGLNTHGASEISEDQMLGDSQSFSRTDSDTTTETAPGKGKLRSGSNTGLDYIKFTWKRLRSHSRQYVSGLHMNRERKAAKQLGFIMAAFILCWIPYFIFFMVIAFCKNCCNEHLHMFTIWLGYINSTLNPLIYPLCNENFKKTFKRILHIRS

[4] = biological target: T4, cholinergic muscarinic receptor 1 (Homo sapiens, UniProt P11229); assay: in vitro antagonistic activity, muscarinic 1; type: biochemical
T4 sequence (P11229 1-460): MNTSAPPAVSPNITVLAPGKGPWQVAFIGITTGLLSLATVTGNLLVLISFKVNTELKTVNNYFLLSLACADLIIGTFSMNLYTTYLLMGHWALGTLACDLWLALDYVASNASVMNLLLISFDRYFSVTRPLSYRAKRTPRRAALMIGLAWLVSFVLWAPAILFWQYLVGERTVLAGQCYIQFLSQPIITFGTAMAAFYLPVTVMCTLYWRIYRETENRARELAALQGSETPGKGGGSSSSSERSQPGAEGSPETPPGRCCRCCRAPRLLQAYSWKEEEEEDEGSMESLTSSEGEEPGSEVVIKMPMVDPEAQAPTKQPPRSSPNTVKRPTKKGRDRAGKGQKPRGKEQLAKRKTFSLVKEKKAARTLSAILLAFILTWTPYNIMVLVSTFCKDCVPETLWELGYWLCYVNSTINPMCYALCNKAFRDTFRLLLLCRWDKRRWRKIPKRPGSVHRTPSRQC

[5] = biological target: cholinergic muscarinic receptor 3 (Homo sapiens, UniProt P20309); assay: in vitro antagonistic activity, muscarinic 3; type: biochemical
Chain of cholinergic muscarinic receptor 3 (P20309 whole entry): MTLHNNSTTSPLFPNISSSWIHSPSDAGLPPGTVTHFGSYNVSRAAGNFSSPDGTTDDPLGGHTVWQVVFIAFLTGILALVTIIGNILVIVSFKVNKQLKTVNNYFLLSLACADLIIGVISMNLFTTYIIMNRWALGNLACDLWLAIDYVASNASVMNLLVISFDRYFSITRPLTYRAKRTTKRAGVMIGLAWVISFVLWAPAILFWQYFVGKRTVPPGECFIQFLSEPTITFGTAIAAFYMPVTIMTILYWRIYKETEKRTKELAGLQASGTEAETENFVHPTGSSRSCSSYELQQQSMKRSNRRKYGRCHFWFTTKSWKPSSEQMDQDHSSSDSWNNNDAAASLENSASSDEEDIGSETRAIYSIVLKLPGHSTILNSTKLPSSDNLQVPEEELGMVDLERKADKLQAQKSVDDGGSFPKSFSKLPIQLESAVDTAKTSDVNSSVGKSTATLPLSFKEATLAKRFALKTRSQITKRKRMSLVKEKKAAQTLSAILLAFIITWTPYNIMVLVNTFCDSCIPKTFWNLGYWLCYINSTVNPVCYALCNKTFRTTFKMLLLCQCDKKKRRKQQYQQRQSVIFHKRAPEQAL

[6] = biological target: T5, cholinergic muscarinic receptor 4 (Homo sapiens, UniProt P08173); assay: in vitro antagonistic activity, muscarinic 4; type: biochemical
T5 sequence (P08173 1-479): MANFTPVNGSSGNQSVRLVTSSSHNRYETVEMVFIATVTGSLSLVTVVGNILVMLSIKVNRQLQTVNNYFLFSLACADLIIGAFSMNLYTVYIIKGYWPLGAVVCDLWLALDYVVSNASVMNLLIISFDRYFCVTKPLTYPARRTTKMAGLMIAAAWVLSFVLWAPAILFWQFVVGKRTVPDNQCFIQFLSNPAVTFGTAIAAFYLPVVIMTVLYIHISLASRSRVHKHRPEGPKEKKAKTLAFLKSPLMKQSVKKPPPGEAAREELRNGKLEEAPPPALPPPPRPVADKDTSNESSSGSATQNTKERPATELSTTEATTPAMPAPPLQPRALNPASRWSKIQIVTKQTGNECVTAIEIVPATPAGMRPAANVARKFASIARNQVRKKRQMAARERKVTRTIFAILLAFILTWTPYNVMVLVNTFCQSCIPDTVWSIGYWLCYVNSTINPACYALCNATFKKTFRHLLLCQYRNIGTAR

[7] = biological target: T6, cholinergic muscarinic receptor 5 (Homo sapiens, UniProt P08912); assay: in vitro antagonistic activity, muscarinic 5; type: biochemical
T6 sequence (P08912 1-532): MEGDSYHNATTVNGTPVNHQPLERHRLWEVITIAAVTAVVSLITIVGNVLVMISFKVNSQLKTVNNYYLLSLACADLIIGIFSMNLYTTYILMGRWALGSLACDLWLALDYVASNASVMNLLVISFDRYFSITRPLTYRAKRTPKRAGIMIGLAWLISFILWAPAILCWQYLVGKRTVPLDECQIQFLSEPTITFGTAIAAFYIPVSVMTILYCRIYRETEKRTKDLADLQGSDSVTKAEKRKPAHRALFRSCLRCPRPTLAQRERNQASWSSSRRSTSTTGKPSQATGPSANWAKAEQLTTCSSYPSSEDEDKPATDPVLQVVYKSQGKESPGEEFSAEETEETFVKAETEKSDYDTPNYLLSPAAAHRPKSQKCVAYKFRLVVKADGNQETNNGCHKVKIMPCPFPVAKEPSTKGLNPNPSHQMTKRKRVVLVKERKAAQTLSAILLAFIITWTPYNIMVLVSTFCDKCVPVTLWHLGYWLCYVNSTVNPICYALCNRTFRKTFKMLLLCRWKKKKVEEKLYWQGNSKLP

dopamine D4 receptor = biological target: T7, dopamine D4 receptor (Homo sapiens, UniProt P21917); assay: in vitro antagonistic activity, dopamine D4; type: biochemical
T7 sequence (P21917 1-419): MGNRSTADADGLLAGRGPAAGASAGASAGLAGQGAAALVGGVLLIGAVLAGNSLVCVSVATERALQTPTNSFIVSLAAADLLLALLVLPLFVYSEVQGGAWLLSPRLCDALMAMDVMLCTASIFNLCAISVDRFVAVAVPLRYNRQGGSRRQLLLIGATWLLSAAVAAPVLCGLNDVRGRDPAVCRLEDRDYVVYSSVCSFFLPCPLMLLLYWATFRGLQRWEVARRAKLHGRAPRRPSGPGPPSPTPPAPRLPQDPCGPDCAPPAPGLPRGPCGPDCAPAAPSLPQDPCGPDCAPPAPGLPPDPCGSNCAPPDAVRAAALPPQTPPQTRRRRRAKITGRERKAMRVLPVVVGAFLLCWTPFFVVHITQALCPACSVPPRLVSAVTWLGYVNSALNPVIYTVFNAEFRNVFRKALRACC

serotonin receptor 1A = biological target: T8, serotonin receptor 1A (Homo sapiens, UniProt P08908); assay: in vitro antagonistic activity, serotonin 1A; type: biochemical
T8 sequence (P08908 1-422): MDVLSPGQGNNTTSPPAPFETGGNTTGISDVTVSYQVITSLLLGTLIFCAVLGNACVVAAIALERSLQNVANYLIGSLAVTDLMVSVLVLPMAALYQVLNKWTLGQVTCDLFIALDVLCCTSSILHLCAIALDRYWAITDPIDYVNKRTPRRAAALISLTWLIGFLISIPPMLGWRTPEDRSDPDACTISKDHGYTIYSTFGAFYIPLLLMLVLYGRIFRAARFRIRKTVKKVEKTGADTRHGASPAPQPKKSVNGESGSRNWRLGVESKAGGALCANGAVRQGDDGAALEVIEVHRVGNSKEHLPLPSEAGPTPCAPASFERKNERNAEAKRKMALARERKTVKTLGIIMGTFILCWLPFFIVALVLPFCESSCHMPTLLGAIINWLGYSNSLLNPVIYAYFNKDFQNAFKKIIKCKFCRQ

morphine addicted rats = assay: opioid withdrawal signs in morphine addicted rats; type: in vivo

Chain of Delta (DOP) receptor (P41143 whole entry): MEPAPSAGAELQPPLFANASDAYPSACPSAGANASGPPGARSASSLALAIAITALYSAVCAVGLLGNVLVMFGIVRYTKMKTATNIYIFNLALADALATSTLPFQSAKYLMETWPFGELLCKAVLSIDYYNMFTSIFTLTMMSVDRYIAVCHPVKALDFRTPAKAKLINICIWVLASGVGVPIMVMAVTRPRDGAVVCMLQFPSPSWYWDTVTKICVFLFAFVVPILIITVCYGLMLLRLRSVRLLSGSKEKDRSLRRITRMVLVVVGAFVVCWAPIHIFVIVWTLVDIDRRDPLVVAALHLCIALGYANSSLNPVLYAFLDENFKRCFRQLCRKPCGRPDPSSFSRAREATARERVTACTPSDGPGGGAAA

SMILES	Receptor Delta (DOP): mode of action (Delta (DOP) receptor)	Receptor Sigma: affinity (Sigma opiate sites)	Receptor Sigma: affinity (Sigma opiate sites; listed as compound 1)	activity at adrenergic receptor Alpha 1B [1]	activity at adrenergic receptor Alpha 2B [2]	activity at adrenergic receptor Alpha 2C [3]	activity at histamine H1 receptor (histamine H1 receptor)	activity at cholinergic muscarinic receptor 1 [4]	activity at cholinergic muscarinic receptor 3 [5]	activity at cholinergic muscarinic receptor 4 [6]	activity at cholinergic muscarinic receptor 5 [7]	activity at dopamine D4 receptor (dopamine D4 receptor)	activity at serotonin receptor 1A (serotonin receptor 1A)	opioid withdrawal signs (morphine addicted rats)
CCC(=O)NC1CC(C)N(CCc2ccccc2)CC1C (centres unmarked) [Compound 1, N-[2,5-dimethyl-1-(2-phenylethyl)piperidin-4-yl]propanamide]	Antagonist	High Affinity	further activity	antagonistic activity	antagonistic activity	antagonistic activity	antagonistic activity	antagonistic activity	antagonistic activity	antagonistic activity	antagonistic activity	antagonistic activity	antagonistic activity	few if any opioid withdrawal signs
C=CCN1CC[C@]23c4c5ccc(O)c4O[C@H]2C(=O)CC[C@@]3(O)[C@H]1C5 [Naloxone, reference compound]	–	Weak	–	–	–	–	–	–	–	–	–	–	–	withdrawal effects
O=C1CC[C@@]2(O)[C@H]3Cc4ccc(O)c5c4[C@@]2(CCN3CC2CC2)[C@H]1O5 [Naltrexone, reference compound]	–	Weak	–	–	–	–	–	–	–	–	–	–	–	–
